Structures can show the parent of a compound that is named as a salt.
System: recombinant NL4-3 virus (Renilla luciferase in nef, Gag P373S; NLRluc) in MT-2 cells
Assay: whole plant or invertebrate
Format: cell-based, HIV
Details: Renilla, NL43
Procedure, shortened: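 First, reporter virus was generated in 293T cells and titered on MT-2 cells. Next, MT-2 cells were infected in the presence of serial compound dilutions for 4-5 days. Finally, cells were lysed and luciferase activity was measured to quantify inhibition.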

Row | SMILES | EC50 [nM]
1 | C=C(C)[C@@H]1CC[C@]2(NCCN3CCS(=O)(=O)CC3)CC[C@]3(C)[C@H](CC[C@@H]4[C@@]5(C)CC=C(c6ccc(C(=O)NS(=O)(=O)C7CC7)cc6)C(C)(C)[C@@H]5CC[C@]43C)[C@@H]12 [Example 164, N-(cyclopropylsulfonyl)-4-((1R,3aS,5aR,5bR,7aR,11aS,11bR,13aR,13bR)-3a-((2-(1,1-dioxido-4-thiomorpholinyl)ethyl)amino)-1-isopropenyl-5a,5b,8,8,11a-pentamethyl-2,3,3a,4,5,5a,5b,6,7,7a,8,11,11a,11b,12,13,13a,13b-octadecahydro-1H-cyclopenta[a]chrysen-9-yl)benzamide] | < 100

Same assay, conditions: Renilla, NL43, luciferase activity in cells infected for 4-5 days with NLRluc recombinants, serial dilutions of inhibitor; class symbols (key in Table 1); read-out: EC50

Row | SMILES | EC50 [nM]
2 | C=C(C)[C@@H]1CC[C@]2(NCc3cscn3)CC[C@]3(C)[C@H](CC[C@@H]4[C@@]5(C)CC=C(c6ccc(C(=O)O)cc6)C(C)(C)[C@@H]5CC[C@]43C)[C@@H]12 [Example 161, 4-((1R,3aS,5aR,5bR,7aR,11aS,11bR,13aR,13bR)-5a,5b,8,8,11a-pentamethyl-1-(prop-1-en-2-yl)-3a-(thiazol-4-ylmethylamino)-2,3,3a,4,5,5a,5b,6,7,7a,8,11,11a,11b,12,13,13a,13b-octadecahydro-1H-cyclopenta[a]chrysen-9-yl)benzoic acid] | < 100
3 | C=C(C)[C@@H]1CC[C@]2(NCCN3CCN(C(=O)CC4CCCC4)CC3)CC[C@]3(C)[C@H](CC[C@@H]4[C@@]5(C)CC=C(c6ccc(C(=O)O)cc6)C(C)(C)[C@@H]5CC[C@]43C)[C@@H]12 [Example B56, 4-((1R,3aS,5aR,5bR,7aR,11aS,11bR,13aR,13bR)-3a-((2-(4-(2-cyclopentylacetyl)piperazin-1-yl)ethyl)amino)-5a,5b,8,8,11a-pentamethyl-1-(prop-1-en-2-yl)-2,3,3a,4,5,5a,5b,6,7,7a,8,11,11a,11b,12,13,13a,13b-octadecahydro-1H-cyclopenta[a]chrysen-9-yl)benzoic acid] | < 100
4 | C=C(C)[C@@H]1CC[C@]2(NC(=O)CN[C@H](CO)c3ccccc3)CC[C@]3(C)[C@H](CC[C@@H]4[C@@]5(C)CC=C(c6ccc(C(=O)O)cc6)C(C)(C)[C@@H]5CC[C@]43C)[C@@H]12 [Example 108, 4-((1R,3aS,5aR,5bR,7aR,11aS,11bR,13aR,13bR)-3a-(2-((S)-2-hydroxy-1-phenylethylamino)acetamido)-5a,5b,8,8,11a-pentamethyl-1-(prop-1-en-2-yl)-2,3,3a,4,5,5a,5b,6,7,7a,8,11,11a,11b,12,13,13a,13b-octadecahydro-1H-cyclopenta[a]chrysen-9-yl)benzoic acid] | < 100
5 | C=C(C)[C@@H]1CC[C@]2(Nc3nc(-c4ccccn4)cs3)CC[C@]3(C)[C@H](CC[C@@H]4[C@@]5(C)CC=C(c6ccc(C(=O)O)cc6)C(C)(C)[C@@H]5CC[C@]43C)[C@@H]12 [Example 187, 4-((1R,3aS,5aR,5bR,7aR,11aS,11bR,13aR,13bR)-5a,5b,8,8,11a-pentamethyl-1-(prop-1-en-2-yl)-3a-(4-(pyridin-2-yl)thiazol-2-ylamino)-2,3,3a,4,5,5a,5b,6,7,7a,8,11,11a,11b,12,13,13a,13b-octadecahydro-1H-cyclopenta[a]chrysen-9-yl)benzoic acid, TFA] | < 100
6 | C=C(C)[C@@H]1CC[C@]2(NC(=O)NC(C)(C)CN3CCOCC3)CC[C@]3(C)[C@H](CC[C@@H]4[C@@]5(C)CC=C(c6ccc(C(=O)O)cc6)C(C)(C)[C@@H]5CC[C@]43C)[C@@H]12 [Example 5, 4-((1R,3aS,5aR,5bR,7aR,11aS,11bR,13aR,13bR)-5a,5b,8,8,11a-pentamethyl-3a-(3-(2-methyl-1-morpholinopropan-2-yl)ureido)-1-(prop-1-en-2-yl)-2,3,3a,4,5,5a,5b,6,7,7a,8,11,11a,11b,12,13,13a,13b-octadecahydro-1H-cyclopenta[a]chrysen-9-yl)benzoic acid] | < 100
7 | C=C(C)[C@@H]1CC[C@]2(NC(=O)N3CCN(CCO)CC3)CC[C@]3(C)[C@H](CC[C@@H]4[C@@]5(C)CC=C(c6ccc(C(=O)O)cc6)C(C)(C)[C@@H]5CC[C@]43C)[C@@H]12 [Example 38, 4-((1R,3aS,5aR,5bR,7aR,11aS,11bR,13aR,13bR)-3a-(4-(2-hydroxyethyl)piperazine-1-carboxamido)-5a,5b,8,8,11a-pentamethyl-1-(prop-1-en-2-yl)-2,3,3a,4,5,5a,5b,6,7,7a,8,11,11a,11b,12,13,13a,13b-octadecahydro-1H-cyclopenta[a]chrysen-9-yl)benzoic acid] | < 100
8 | C=C(C)[C@@H]1CC[C@]2(NC(=O)NC3(CN(CC)CC)CC3)CC[C@]3(C)[C@H](CC[C@@H]4[C@@]5(C)CC=C(c6ccc(C(=O)O)cc6)C(C)(C)[C@@H]5CC[C@]43C)[C@@H]12 [Example 7, 4-((1R,3aS,5aR,5bR,7aR,11aS,11bR,13aR,13bR)-3a-(3-(1-((diethylamino)methyl)cyclopropyl)ureido)-5a,5b,8,8,11a-pentamethyl-1-(prop-1-en-2-yl)-2,3,3a,4,5,5a,5b,6,7,7a,8,11,11a,11b,12,13,13a,13b-octadecahydro-1H-cyclopenta[a]chrysen-9-yl)benzoic acid] | < 100
9 | C=C(C)[C@@H]1CC[C@]2(NCCCN3CCS(=O)(=O)CC3)CC[C@]3(C)[C@H](CC[C@@H]4[C@@]5(C)CC=C(c6ccc(C(=O)O)c(F)c6)C(C)(C)[C@@H]5CC[C@]43C)[C@@H]12 [Example A6, benzoic acid, 4-[(1R,3aS,5aR,5bR,7aR,11aS,11bR,13aR,13bR)-3a-[[3-(1,1-dioxido-4-thiomorpholinyl)propyl]amino]-2,3,3a,4,5,5a,5b,6,7,7a,8,11,11a,11b,12,13,13a,13b-octadecahydro-5a,5b,8,8,11a-pentamethyl-1-(1-methylethenyl)-1H-cyclopenta[a]chrysen-9-yl]-2-fluoro-] | < 100
10 | C=C(C)[C@@H]1CC[C@]2(NCCN3CCS(=O)(=O)CC3)CC[C@]3(C)[C@H](CC[C@@H]4[C@@]5(C)CC=C(c6ccc(C(=O)O)cc6)C(C)(C)[C@@H]5CC[C@]43C)[C@@H]12 [Example 137, 4-((1R,3aS,5aR,5bR,7aR,11aS,11bR,13aR,13bR)-3a-((2-(1,1-dioxido-4-thiomorpholinyl)ethyl)amino)-1-isopropenyl-5a,5b,8,8,11a-pentamethyl-2,3,3a,4,5,5a,5b,6,7,7a,8,11,11a,11b,12,13,13a,13b-octadecahydro-1H-cyclopenta[a]chrysen-9-yl)benzoic acid] | < 100

Same assay, conditions: Renilla, NL43, luciferase activity in cells infected for 4-5 days with NLRluc recombinants, serial dilutions of inhibitor; numeric values; read-out: EC50

Row | SMILES | EC50 [nM]
11 | C=C(C)[C@@H]1CC[C@]2(NCCNc3nccs3)CC[C@]3(C)[C@H](CC[C@@H]4[C@@]5(C)CC=C(c6ccc(C(=O)O)cc6)C(C)(C)[C@@H]5CC[C@]43C)[C@@H]12 [Example 193, 4-((1R,3aS,5aR,5bR,7aR,11aS,11bR,13aR,13bR)-5a,5b,8,8,11a-pentamethyl-1-(prop-1-en-2-yl)-3a-(2-(thiazol-2-ylamino)ethylamino)-2,3,3a,4,5,5a,5b,6,7,7a,8,11,11a,11b,12,13,13a,13b-octadecahydro-1H-cyclopenta[a]chrysen-9-yl)benzoic acid] | 20
